The record followed here is patent publication EP2457907A1, “Flavagline derivatives as neuroprotective agents” (Université de Strasbourg, priority 2010, dated 2012).

For assay [1], the system named is primary rat mesencephalic neurons. Kind of assay: Neuroprotection against MPP+-induced apoptosis (in vitro model of Parkinson's disease), TH immunostaining. It counts as cell-based. To be noted: 3µM MPP+; numbers only in Figure 4. The protocol:
The neuroprotectant activity was tested in a cellular model of Parkinson's disease on primary mesencephalic cultures of rat embryos treated by MPP^+ (3µM) (Hoglinger et al. 2003).
Postmitotic dopaminergic neurons from the ventral mesencephalon of embryonic day 15.5 Wistar rat embryos (CERJ, Le Genest St. Isle, France) were dissociated mechanically, plated onto polyethylenimine-precoated 24-well culture plates, grown in N5 medium supplemented with 5 mM glucose, 5% horse serum and 2.5% fetal calf serum, as described previously (Michel et al., 1989). After 3 days, fetal calf serum was reduced to 0.5% to limit astrocyte proliferation. All experiments were initiated at day 5 in N5 medium containing 1 % horse serum and 0.1 % fetal calf serum. For each experiment MPP^+ (Sigma) was diluted to 10 mM in H2O. Cells were fixed with 4% formaldehyde for immunocytochemistry. Dopaminergic neurons were visualized by immunocytochemical detection of tyrosine hydroxylase (TH).

Assay [2] relates to primary cultures of mouse cerebellar neurons. In words: Neuroprotection against cisplatin-induced apoptosis (MTT assay). To be noted: flavagline derivative 1 nM, cisplatin 2.5 µM, 48 hours; numbers only in Figure 3. It counts as cell-based. As to the method:
The in vitro neuroprotectant activity against neurotoxicity of an antineoplastic agent was assayed on apoptosis induced by cisplatin (2.5 µM) in primary cultures of mouse cerebellar neurons. Neuronal survival was measured by MTT assay.
Cerebellar granular neurons were dissected from 7-day old mice as described previously (Benosman et al., 2007). Briefly, after enzymatic and mechanical dissociation, cells were plated at a density of 500 cells/mm^2 on 0.1 mg/ml polyornithine-pre-coated culture dishes and were grown at 37 °C in a humidified atmosphere (5% CO2 / 95% air). Plating culture medium contained DMEM (Dulbecco's modified Eagle's medium; Life Technology) supplemented with 10% heat-inactivated horse serum (Life Technology), 100 nM insulin (Life Technology), […] gentamycin (Life Technology) and 25 mM KCl. […]
Mature neurons were cultured in 96-well culture dishes (Costar) and incubated for 48 hours in presence of cisplatine (2.5 µM) and flavagline derivative (1 nM) (which were both added into the medium at the same time). […] Plates were stirred at room temperature to ensure that all crystals were dissolved and read on a Bio-Rad 680 micro-ELISA plate-reader, using a test wavelength of 490 nm and a non-specific wavelength of 650 nm for background absorbency. […]
(Formazan colour is commonly taken as a measure of viable cells.)

With `COc1cc(OC)c2c(c1)OC1(c3ccc(Br)cc3)C(c3ccccc3)CC(NC=O)C21O` (centres unmarked) [FL23, N-(3a-(4-Bromophenyl)-8b-hydroxy-6,8-dimethoxy-3-phenyl-2,3,3a,8b-tetrahydro-1H-cyclopenta[b]benzofuran-1-yl)formamide], the “protection against MPP+-induced neurodegeneration (TH-positive dopaminergic neurons)” value (shortened to “protection … (TH-positive dopaminergic neurons)”) in assay [1] is given as “able to prevent or limit neuronal cell degeneration”. In addition, the “protection of neurons against apoptosis induced by cisplatin (neuronal survival)” value in assay [2] is recorded as “able to prevent or limit neuronal cell apoptosis”.

In the case of `COc1cc(OC)c2c(c1)OC1(c3ccc(Br)cc3)C(c3cccc(F)c3)CC(NC=O)C21O` (centres unmarked) [FL32, N-(3a-(4-Bromophenyl)-3-(3-fluorophenyl)-8b-hydroxy-6,8-dimethoxy-2,3,3a,8b-tetrahydro-1H-cyclopenta[b]benzofuran-1-yl)formamide], the “protection … (TH-positive dopaminergic neurons)” value in assay [1] was “able to prevent or limit neuronal cell degeneration”.

For the molecule `COc1cc(OC)c2c(c1)OC1(c3ccc(Br)cc3)C(c3cccc(F)c3)CC(NC(=O)N(C)C)C21O` (centres unmarked) [FL37], in assay [1], the “protection … (TH-positive dopaminergic neurons)” value is “able to prevent or limit neuronal cell degeneration”. In assay [2], the “protection of neurons against apoptosis induced by cisplatin (neuronal survival)” value was “able to prevent or limit neuronal cell apoptosis”.
